# According to US20240100201A1, “Labeling precursors and radiotracers for nuclear medicine diagnosis and therapy of prostate cancer-induced bone metastases” (SCV-SpezialChemikalienVertrieb GmbH, priority 2021, published 2024):
# Read-outs that look alike come from different tables or passages of the source.
# What was measured:
# [1] = target: T1, PSMA (Homo sapiens, UniProt Q04609); test: competitive radioligand assay on PSMA-positive LNCaP cells (Ki); format: binding
# T1 construct: PSMA-positive LNCaP cells from Sigma-Aldrich; host or cells: LNCaP cells
# T1 sequence (Q04609 whole entry): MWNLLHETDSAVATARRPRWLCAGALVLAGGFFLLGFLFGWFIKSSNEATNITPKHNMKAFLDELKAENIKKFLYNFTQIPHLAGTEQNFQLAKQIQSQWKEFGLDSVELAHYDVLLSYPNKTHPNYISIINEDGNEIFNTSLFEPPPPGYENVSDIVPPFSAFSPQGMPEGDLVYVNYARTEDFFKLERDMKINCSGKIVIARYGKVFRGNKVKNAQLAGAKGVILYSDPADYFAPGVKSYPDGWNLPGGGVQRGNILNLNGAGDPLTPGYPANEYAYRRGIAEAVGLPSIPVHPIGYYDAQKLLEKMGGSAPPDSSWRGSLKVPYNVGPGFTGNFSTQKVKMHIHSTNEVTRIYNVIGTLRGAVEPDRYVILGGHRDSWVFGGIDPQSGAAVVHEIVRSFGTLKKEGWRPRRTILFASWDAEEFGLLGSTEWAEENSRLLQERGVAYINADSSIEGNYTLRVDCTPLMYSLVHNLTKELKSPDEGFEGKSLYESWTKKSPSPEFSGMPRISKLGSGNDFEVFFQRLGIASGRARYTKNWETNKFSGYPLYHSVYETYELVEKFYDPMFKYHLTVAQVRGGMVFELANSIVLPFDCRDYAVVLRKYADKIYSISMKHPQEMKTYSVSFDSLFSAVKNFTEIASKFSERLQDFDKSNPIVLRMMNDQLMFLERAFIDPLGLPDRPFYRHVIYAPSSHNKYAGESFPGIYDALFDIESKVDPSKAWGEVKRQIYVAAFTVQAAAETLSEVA
# Procedure: By means of comparative radioligand assays, binding affinity for PSMA is determined for the radiotracer or labeling precursor DOTA.L-Lys(SA.Pam)KuE-617 and reference structures. The Ki-value for [^natLu]Lu-DOTA.L-Lys(SA.Pam)KuE-617 corresponds roughly to the value for the labeling precursor DOTA.L-Lys(SA.Pam) KuE-617. […] Compared to DOTA.L-Lys.KuE-617—corresponding to structural formula (14) in scheme 31—the Ki of [^natLu]Lu-DOTA.L-Lys(SA.Pam)KuE-617 is greater by a factor of about 2. It can be seen from this that the squaric acid-pamidronate group reduces affinity for PSMA.
# Non-active (cold) [natLu]Lu complexes are prepared by shaking a solution containing the labeling precursor DOTA-L-Lys(SA.Pam)-KuE-617 (371 μl, 1 mg/ml, 250 nmol) with LuCl3 (129 μl, 1 mg/ml, 375 nmol, metal to labeling precursor ratio 1.5:1) in 1 M ammonium acetate buffer at 95° C. for 2 hours. Complex formation is monitored by ESI-LC/MS.
# PSMA binding affinity is determined by the competitive radioligand assay described by Benešová et al. (Benešová, M.; Schaefer, M.; Bauder-Wüst, U.; Afshar-Oromieh, A.; Kratochwil, C.; Mier, W.; Haberkorn, U.; Kopka, K.; Eder, M. Preclinical Evaluation of a Tailor-Made DOTA-Conjugated PSMA Inhibitor with Optimized Linker Moiety for Imaging and Endoradiotherapy of Prostate Cancer. J. Nucl. Med. 2015, 56 (6), 914-920.). For this purpose, PSMA-positive LNCaP cells from Sigma-Aldrich in RPMI 1640 (Thermo Fisher Scientific) supplemented with 10% fetal bovine serum (Thermo Fisher Scientific), 100 μg/ml streptomycin and 100 units/ml penicillin are cultured at 37° C. in 5% CO2. The LNCaP cells are incubated with increasing concentrations of solutions containing the labeling precursors in the presence of 0.75 nM [^68Ga]Ga-PSMA-10 for 45 min. Free radioactivity is removed by several washes with ice-cold PBS. The samples obtained are measured in a y counter (2480 WIZARD2 Automatic Gamma Counter, PerkinElmer). The measurement data are evaluated in GraphPad Prism 9 using non-linear regression.
# [2] = target: T1, PSMA; test: cell-based competitive assay on LNCaP cells (PSMA affinity, IC50); format: binding; conditions: 45 min, 68Ga-labeled PSMA reference compound
# Text: Using a cell-based assay, the affinity of the KuE targeting vector with a lipophilic linker—analogously to PSMA-617—and with a squaric acid linker was examined using the compounds NH2.DOTAGA.KuE-617 and NH2.DOTAGA.QS.KuE (structural formulae (8) and (10) in scheme 32).
# For the assay, LNCaP cells were pipetted into multiwell plates (Merck Millipore Multiscreen™). To the compounds to be analyzed, in increasing concentrations, was in each case added a defined amount or concentration of the reference compound ^68Ga[Ga]PSMA-with known Kdvalue, and the mixture was incubated in the wells with the LNCaP cells for 45 min. After washing several times, the cell-bound activity was determined.
# In order to determine non-specific binding, an excess of the PSMA inhibitor 2-PMPA (2-(phosphonomethyl)[…]) was additionally added to all compounds, and they were subjected to the same LNCaP assay-as described above.
# [3] = adsorption isotherms on hydroxyapatite by the method of Langmuir and Freundlich; format: binding; conditions: Langmuir-Freundlich
# Procedure: For this purpose, the adsorption therms are determined by the method of Langmuir and Freundlich.
# For comparison, schemes 23 and 24 show conjugates of the chelator NODAGA with squaric acid pamidronate (NODAGA.QS.Pam) and NODAGA with zoledronate (NODAGA.Zol), and also the respective coefficients of adsorption KLF, measured by the method of Langmuir and Freundlich.
# [4] = affinity for hydroxyapatite (HAP) of 177Lu-labeled compounds; format: binding; conditions: ordinary HAP, 1 h room temperature
# Procedure: Calcium-containing crystalline hydroxyapatite is an essential component of mammalian bones and is suitable as a model substrate for the in vitro study of bisphosphonate accumulation in healthy bone tissue and bone metastases. […] In contrast, […] is found to have an HAP-enriched fraction of only 1.2%. In order to determine selectivity, accumulation on HAP previously treated with excess pamidronate was additionally measured.
# Hydroxyapatite (20 mg) is incubated in saline (1 ml) for 24 h. 50 μl of the radiotracer [^177Lu]Lu-DOTA-L-Lys(SA.Pam)-KuE-617 (5 MBq) or [^177Lu]Lu-PSMA-617 (5 MBq) is added. Each suspension is vortexed with a vortex mixer for 20 s and incubated at room temperature for 1 h. […] The radioactivity of the liquids and HAP-containing supernatants obtained is measured in each case with a curiemeter (Isomed 2010 activimeter, MED Nuclear-Medizintechnik Dresden GmbH). The binding of [^177Lu]Lu-DOTA-L-Lys(SA.Pam)-KuE-617 and [^177Lu]Lu-PSMA-617 is determined as a percentage of the activity absorbed on HAP. As a reference, the HAP binding of free Lu-177 is measured in an analogous manner. […] For this purpose, HAP (20 mg) in saline solution (1 ml) is incubated with pamidronate (100 mg) and the respective activities of [^177Lu]Lu-DOTA-L-Lys(SA.Pam)-KuE-617 and free Lu-177 are determined.
# [5] = lipophilicity, partition in n-octanol and PBS; format: physicochemical; conditions: pH 7.4
# Procedure: The lipophilicity of […] is determined by determining the partition equilibrium of the compound in a mixture of n-octanol and PBS.
# LogD7.4 of the respective compound is determined via the partition coefficient in n-octanol and PBS. The labeling solution is adjusted to pH 7.4 and 5 MBq is diluted in 700 μl of n-octanol and 700 μl of PBS. It is shaken at 1500 rpm for 2 min and then centrifuged. 400 μl of the n-octanol phase and 400 μl of the PBS phase were each transferred to a new Eppendorf tube. 3-6 μl is then pipetted onto a TLC plate and analyzed using a phosphor imager. The logD7.4 is calculated based on the ratio of the activities of the two phases. The measurement of each phase is also repeated twice more with the sample of higher activity, such that three logD7.4 values can be obtained and an average can be calculated.
# [6] = LNCaP cells, 0.75 nM [68Ga]Ga-PSMA-10, 45 min, read-out: PSMA Ki
molecule,measurement,setting,value
O=C(O)CCC(NC(=O)NC(CCCCNC(=O)C(Cc1ccc2ccccc2c1)NC(=O)C1CCC(CNC(=O)C(CCCCNc2c(NCCC(O)(P(=O)(O)O)P(=O)(O)O)c(=O)c2=O)NC(=O)CN2CCN(CC(=O)O)CCN(CC(=O)O)CCN(CC(=O)O)CC2)CC1)C(=O)O)C(=O)O [DOTA.L-Lys(SA.Pam)KuE-617],Ki,[1],53 ± 4 nM
NCCCCC(NC(=O)CN1CCN(CC(=O)O)CCN(CC(=O)O)CCN(CC(=O)O)CC1)C(=O)NCC1CCC(C(=O)NC(Cc2ccc3ccccc3c2)C(=O)NCCCCC(NC(=O)NC(CCC(=O)O)C(=O)O)C(=O)O)CC1 [DOTA.L-Lys.KuE-617],Ki,[1]; [6],20 ± 3 nM
NCCN1CCN(CC(=O)O)CCN(C(CCC(=O)NCC2CCC(C(=O)NC(Cc3ccc4ccccc4c3)C(=O)NCCCCC(NC(=O)NC(CCC(=O)O)C(=O)O)C(=O)O)CC2)C(=O)O)CCN(CC(=O)O)CC1 (stereo not drawn) [NH2.DOTAGA.KuE-617],IC50,[2],20.6 ± 3.4 nM
NCCN1CCN(CC(=O)O)CCN(C(CCC(=O)NCCNc2c(NCCCCC(NC(=O)NC(CCC(=O)O)C(=O)O)C(=O)O)c(=O)c2=O)C(=O)O)CCN(CC(=O)O)CC1 (stereo not drawn) [NH2.DOTAGA.QS.KuE],IC50,[2],20.2 ± 3.5 nM
O=C(O)CN1CCN(CC(=O)O)CCN(C(CCC(=O)NCCNc2c(NCCC(O)(P(=O)(O)O)P(=O)(O)O)c(=O)c2=O)C(=O)O)CC1 (stereo not drawn) [NODAGA.QS.Pam],coefficient of adsorption KLF compared with NODAGA.Zol,[3],about three times greater
"O=C(O)CCC(NC(=O)NC(CCCCNC(=O)C(Cc1ccc2ccccc2c1)NC(=O)C1CCC(CNC(=O)CN2CCN(CC(=O)O)CCN(CC(=O)O)CCN(CC(=O)O)CC2)CC1)C(=O)O)C(=O)O (stereo not drawn) [PSMA-617, reference compound]",Ki,[1]; [6],7 ± 1 nM
O=C(O)CCC(NC(=O)NC(CCCCNC(=O)C(Cc1ccc2ccccc2c1)NC(=O)C1CCC(CNC(=O)CCC(C(=O)O)N2CCN(CC(=O)O)CCN(CCNc3c(NCCC(O)(P(=O)(O)O)P(=O)(O)O)c(=O)c3=O)CCN(CC(=O)O)CC2)CC1)C(=O)O)C(=O)O (stereo not drawn) [Pam.SA.DOTAGA.KuE-617],IC50,[2],49.8 ± 10 nM
[^177Lu]Lu-PSMA-617,proportion bound to HAP,[4],1.2%
same,"LogD7,4 (n-octanol/PBS)",[5],−2.2 ± 0.20
